Assay results: patent US20090239271A1, “FERMENTATION BROTH EXTRACTION OF K-252A” (ABBOTT LABORATORIES, priority 2005, published 2009)

Assay: solubility of K-252a in various solvents at 22° C.
Assay type: physicochemical

COC(=O)[C@@]1(O)C[C@H]2O[C@]1(C)n1c3ccccc3c3c4c(c5c6ccccc6n2c5c31)C(=O)NC4 [K-252a, methyl (1R,2S,4R)-2,4-(6,7,12,13-tetrahydro-5H-indolo[2,3-a]pyrrolo[3,4-c]carbazol-5-onediyl)-1-hydroxy-2-methyltetrahydrofuran carboxylate]
Solubility (solvent 1% water/acetone): 9.36 mg K-252a/g solvent
Solubility (solvent 5% acetone/methanol): 0.90 mg K-252a/g solvent
Solubility (solvent 10% MTHF/methanol): 1.20 mg K-252a/g solvent
Solubility (solvent 10% acetone/methanol): 1.22 mg K-252a/g solvent
Solubility (solvent 10% water/MTHF (kinetic)): 104.07 mg K-252a/g solvent
Solubility (solvent 10% water/MTHF (thermodynamic)): 31.97 mg K-252a/g solvent
Solubility (solvent 10% water/acetone): 18.25 mg K-252a/g solvent
Solubility (solvent 10% water/methanol): 0.54 mg K-252a/g solvent
Solubility (solvent 20% water/acetone): 17.78 mg K-252a/g solvent
Solubility (solvent 20% water/methyl acetate): >17.7 mg K-252a/g solvent
Solubility (solvent 30% water/acetone): 12.40 mg K-252a/g solvent
Solubility (solvent 50% acetone/methanol): 7.93 mg K-252a/g solvent
Solubility (solvent 75% acetone/methanol): 18.59 mg K-252a/g solvent
Solubility (solvent MTHF): 27.99 mg K-252a/g solvent
Solubility (solvent acetone): 7.99 mg K-252a/g solvent
Solubility (solvent methanol): 0.72 mg K-252a/g solvent
Solubility (solvent methyl acetate): >11.7 mg K-252a/g solvent
